Experimental data as given in patent US20250163484A1, “Methods for Incorporating Azido Groups in Bacterial Capsular Polysaccharides” (PFIZER INC., priority 2022, published 2025).
Where “and” joins values, the source holds several entries; their conditions need not be identical. Identical values can stand only once. Like-named read-outs stand apart in the source and are kept apart here.

Legend:
[1] = system: S. pneumoniae T14 capsule polysaccharide; type: cell-based, Streptococcus pneumoniae serotype 14
Experimental: (§1) FIGS. 1A-1D. Screen for azido sugar incorporation into S. pneumoniae T14 capsule polysaccharide. […] Bacteria were grown until the ΔOD600≥0 for >30 minutes, then lysed with 0.1% NLS for 30 minutes. Growth was measured offline using a spectrophotometer blanked with PBS at 600 nm. (FIG. 1A) azido incorporation into polysaccharide was then quantified via fluorescent labeling (FL) with normalization to refractive index (RI). MaxOD and End Of Fermentation time (EOF) are provided in (FIG. 1B) and (FIG. 1C), respectively. Polysaccharide was extracted using EtOH and CaCl2 and analyzed via SEC-RI for (FIG. 1D) polysaccharide titer. n=1-4, error bars=+/−StDev.
A SEC fluorescence and Refractive index assay (SEC-FL/RI) was used for azide measurement to confirm the incorporation of azide modification.
Click-It Cell Reaction Buffer kit and Alexa Fluor 488 Alkyne were purchased from Invitrogen.
The initial procedure when running the SEC-FL/RI was to prepare the sample to a target concentration of 0.01 mg/m by mixing a pre-diluted polysaccharide to the final target concentration with the Click Reaction mixture. The reaction mixture consisted of 2.67 mM CuSO4, 2.67 mg/mL cell additive reagent, and 20 uM Alexa Fluor Alkyne. This was mixed with the sample at a 3:1 ratio of reaction mixture to sample and incubated in the absence of light. Reactions were transferred to HPLC vials and ran on the SEC-FL/RI HPLC setup. The RI detector (RID) allowed for detection of the polysaccharide while the Fluorescence Detector (FLD) was used to determine the level of fluor incorporated into the polysaccharide sample. The ratio of the two peak areas gave a measurement for the amount of azide incorporated to the polysaccharide.
Later, in addition to the incubation of the sample for thirty minutes, a buffer exchange step was added that washed out the unreacted fluor as well as the reaction matrix reagents in order to improve the baselines of the FLD and RID during the HPLC run. This added greater resolution of the peak associated with the azide functionalized polysaccharide. The assay was useful for relative quantitation of azide incorporation into the polysaccharide but could not quantify an exact numerical concentration. To improve this aspect work was undertaken to use a polysaccharide with known levels of azido functionalization to make a standard curve that varied the % Azido while keeping the polysaccharide mass the same. This was done by mixing the known azido modified poly (polysaccharide) with specific amounts of native (unmodified) polysaccharide. A strong linear fit for the generated standard curve was seen.
The values for percent azide were able to be converted to a μM azide per mM polysaccharide by converting from % azide using the constant polysaccharide concentration.

[2] = system: S. pneumoniae T14; type: cell-based, Streptococcus pneumoniae serotype 14; conditions: for Polysacch. Titer: production medium + Galactose (30 g/L) + 2AzGlc (0.25 mM)
Experimental: as §1
FIGS. 2A-2D Impact of 2AzGlcAc4 concentration on S. pneumoniae T14 growth and poly production in production medium supplemented with Galactose (30 g/L). […] (FIG. 2A) Growth was measured offline using a spectrophotometer blanked with PBS at 600 nm. At the end of fermentation, cultures were lysed with 0.1% NLS for 30 min. and polysaccharide was extracted via EtOH/CaCl2) precipitation. Polysaccharide titer (FIG. 2B) and size (FIG. 2C) were measured via SEC-RI and SEC-MALS, respectively. (FIG. 2D) azido incorporation was then quantified via fluorescent labeling (FL) and normalized to the refractive index (RI). n=3, error bars=+/−StDev.
FIGS. 3A-3E Impact of 2AzGlc concentration on S. pneumoniae T14 growth and polysaccharide production in production medium supplemented with Galactose (30 g/L). […] (FIG. 3A) Growth was measured offline using a spectrophotometer blanked with PBS at 600 nm. Cultures were lysed with 0.1% NLS for 30 min. and polysaccharide was extracted via EtOH/CaCl2) precipitation. Polysaccharide (FIG. 3B/FIG. 3C) titer and (FIG. 3D) size were measured via SEC-RI and SEC-MALS, respectively. (FIG. 3E) azido incorporation was then quantified via fluorescent labeling (FL) and normalized to the refractive index (RI). n=3, error bars=+/−StDev.
We tested the impact of 2AzGlc concentration on S. pneumoniae T14 growth, polysaccharide production, and azido incorporation by growing the bacteria in production media (supplemented with Glucose (dextrose, 30 g/L)) with various concentrations of 2AzGlc (0, 1, 5, 10, 20, 40, and 60 mM).

[3] = azido feed DOE: Gal 30 g/L, initial 2AzGlc 0 mM, 2AzGlc feed stock 4 mM, pH 7.33, 300 rpm
[4] = azido feed DOE: Gal 30 g/L, initial 2AzGlc 0 mM, 2AzGlc feed stock 6.5 mM, pH 7.33, 300 rpm
[5] = azido feed DOE: Gal 30 g/L, initial 2AzGlc 0.1 mM, 2AzGlc feed stock 4 mM, pH 7.33, 300 rpm
[6] = azido feed DOE: Gal 30 g/L, initial 2AzGlc 0.1 mM, 2AzGlc feed stock 6.5 mM, pH 7.33, 300 rpm
[7] = azido feed DOE: Gal 40 g/L, initial 2AzGlc 0 mM, 2AzGlc feed stock 4 mM, pH 7.33, 300 rpm
[8] = azido feed DOE: Gal 40 g/L, initial 2AzGlc 0 mM, 2AzGlc feed stock 6.5 mM, pH 7.33, 300 rpm
[9] = azido feed DOE: Gal 40 g/L, initial 2AzGlc 0.1 mM, 2AzGlc feed stock 4 mM, pH 7.33, 300 rpm
[10] = azido feed DOE: Gal 40 g/L, initial 2AzGlc 0.1 mM, 2AzGlc feed stock 6.5 mM, pH 7.33, 300 rpm
[11] = initial galactose 40 g/L, initial 2AzGlc 0.1 mM, 4.0 mM 2AzGlc feed stock
[12] = production media + 2AzGlc (10 mM), pH 6.33, agitation 100 rpm
[13] = production media + 2AzGlc (10 mM), pH 6.33, agitation 300 rpm
[14] = production media + 2AzGlc (10 mM), pH 6.66, agitation 200 rpm
[15] = production media + 2AzGlc (10 mM), pH 7, agitation 100 rpm
[16] = production media + 2AzGlc (10 mM), pH 7, agitation 300 rpm
[17] = production media + 2AzGlc (10 mM), pH 7.33, agitation 100 rpm
[18] = production media + 2AzGlc (10 mM), pH 7.33, agitation 200 rpm
[19] = production media + 2AzGlc (10 mM), pH 7.33, agitation 300 rpm
[20] = production media + Glucose (dextrose, 30 g/L), media pH 7, 2AzGlc 1 mM
[21] = production media + Glucose (dextrose, 30 g/L), media pH 7, 2AzGlc 5 mM
[22] = production media + Glucose (dextrose, 30 g/L), media pH 7, 2AzGlc 10 mM
[23] = production media + Glucose (dextrose, 30 g/L), media pH 7, 2AzGlc 20 mM
[24] = production media + Glucose (dextrose, 30 g/L), media pH 7.33, 2AzGlc 20 mM
[25] = production media + Glucose (dextrose, 30 g/L), media pH 7.33, 2AzGlc 40 mM
[26] = production media + Glucose (dextrose, 30 g/L), media pH 7.33, 2AzGlc 60 mM
[27] = 2AzGlc titration 0-60 mM, production media + Glucose (dextrose, 30 g/L)

For `[N-]=[N+]=N[C@@H](C=O)[C@@H](O)[C@H](O)[C@H](O)CO` [2AzGlc, 2-Azido-2-deoxy-D-glucose], the “increase between lowest and higher FL/RI achieved” value ([1]; 2AzGlc titration 1-60 mM, production media + Glucose (dextrose, 30 g/L)) was 10 fold, the FL/RI [1, 3] was 101.45 and 103.61 and the FL/RI [1, 4] was 113.82 and 121.9. For the same compound, the FL/RI [1, 5] was 116.16 and 116.31, the FL/RI [1, 6] was 84.53 and 83.69 and the FL/RI [1, 7] was 97.04 and 114.22. For the same compound, the FL/RI [1, 8] was 122.7 and 110.09, the FL/RI [1, 9] was 125.02 and 122.41 and the FL/RI [1, 10] was 79.3 and 63.19. For the same compound, the FL/RI ([1]; fed-batch, initial galactose 5.0 g/L, 0.25 mM 2AzGlc, galactose feed rate FR #1) was 45, the FL/RI ([1]; fed-batch, initial galactose 5.0 g/L, 0.25 mM 2AzGlc, galactose feed rate FR #2) was 18 and the “average FL/RI” value [1, 11] was 123.7. The FL/RI [1, 12] was 91.9 and 100.7, the FL/RI [1, 13] was 98.3 and 97.5 and the FL/RI [1, 14] was 114.5 and 135.0. For the same compound, the FL/RI [1, 15] was 117.8 and 118.8, the FL/RI [1, 16] was 115.7 and 107.5 and the FL/RI [1, 17] was 137.4 and 158.3. The FL/RI [1, 18] was 140.8 and 125.0, the FL/RI [1, 19] was 113.9 and 137.3 and the FL/RI [1, 20] was 15. For the same compound, the FL/RI [1, 21] was 61, the FL/RI [1, 22] was 118 and the FL/RI [1, 23] was 146. It also gave an FL/RI [1, 24] of 148, an FL/RI [1, 25] of 157 and an FL/RI [1, 26] of 151. For the same compound, the FL/RI ([1]; production medium + Galactose (30 g/L) + 2AzGlc (0.25 mM), pH 6.33, agitation 100 rpm) was 51.73 and 50.26, the FL/RI ([1]; production medium + Galactose (30 g/L) + 2AzGlc (0.25 mM), pH 6.33, agitation 200 rpm) was 48.41 and the FL/RI ([1]; production medium + Galactose (30 g/L) + 2AzGlc (0.25 mM), pH 6.33, agitation 300 rpm) was 45.24 and 44.39. For the same compound, the FL/RI ([1]; production medium + Galactose (30 g/L) + 2AzGlc (0.25 mM), pH 6.66, agitation 100 rpm) was 78.29, the FL/RI ([1]; production medium + Galactose (30 g/L) + 2AzGlc (0.25 mM), pH 6.66, agitation 300 rpm) was 77.94 and the FL/RI ([1]; production medium + Galactose (30 g/L) + 2AzGlc (0.25 mM), pH 7, agitation 200 rpm) was 97.25. For the same compound, the FL/RI ([1]; production medium + Galactose (30 g/L) + 2AzGlc (0.25 mM), pH 7.33, agitation 100 rpm) was 101.26 and 88.76, the FL/RI ([1]; production medium + Galactose (30 g/L) + 2AzGlc (0.25 mM), pH 7.33, agitation 300 rpm) was 110 and 109.76 and 110.12 and the FL/RI ([1]; screen, azido sugar 1 mM, production medium + Glucose (dextrose, 30 g/L)) was “detectable”. For the same compound, the max size reduction [2, 27] was 78%, the max titer loss [2, 27] was 56% and the “concentration at which negative effect on poly production started” value ([2]; 2AzGlc titration, production media + Glucose (dextrose, 30 g/L)) was 1 mM. For the same compound, the “polysaccharide titers with increasing 2AzGlc concentrations” value ([2]; 2AzGlc titration, production medium + Galactose (30 g/L)) was “negatively impacted”, the “Poly Titer” value [2, 3] was 0.2358 mg/mL and 0.22 mg/mL and the “Poly Titer” value [2, 4] was 0.1846 mg/mL and 0.189 mg/mL. The “Poly Titer” value [2, 5] was 0.1856 mg/mL and 0.1876 mg/mL, the “Poly Titer” value [2, 6] was 0.1266 mg/mL and 0.137 mg/mL and the “Poly Titer” value [2, 7] was 0.2204 mg/mL and 0.1796 mg/mL. For the same compound, the “Poly Titer” value [2, 8] was 0.1826 mg/mL and 0.1536 mg/mL, the “Poly Titer” value [2, 9] was 0.1882 mg/mL and 0.1748 mg/mL and the “Poly Titer” value [2, 10] was 0.1251 mg/mL and 0.1011 mg/mL. The polysaccharide production ([2]; azido sugar 20 mM without DMSO, production medium + Galactose (30 g/L)) was “strongly inhibited”, the “polysaccharide titer (average)” value [2, 11] was 0.1815 mg/mL and the “Poly Titer” value [2, 12] was 0.39 mg/mL. For the same compound, the “Poly Titer” value [2, 13] was 0.44 mg/mL and 0.42 mg/mL, the “Poly Titer” value [2, 14] was 0.52 mg/mL and 0.47 mg/mL and the “Poly Titer” value [2, 15] was 0.40 mg/mL and 0.41 mg/mL. For the same compound, the “Poly Titer” value [2, 16] was 0.43 mg/mL and 0.48 mg/mL, the “Poly Titer” value [2, 17] was 0.36 mg/mL and 0.37 mg/mL and the “Poly Titer” value [2, 18] was 0.41 mg/mL and 0.44 mg/mL. The “Poly Titer” value [2, 19] was 0.41 mg/mL, the Titer [2, 20] was 0.63 mg/mL and the Titer [2, 21] was 0.53 mg/mL. The Titer [2, 22] was 0.43 mg/mL, the Titer [2, 23] was 0.32 mg/mL and the Titer [2, 24] was 0.3 mg/mL. The Titer [2, 25] was 0.28 mg/mL, the Titer [2, 26] was 0.28 mg/mL and the “Polysacch. Titer” value ([2]; pH 6.33, agitation 100 rpm) was 0.195 mg/mL and 0.193 mg/mL. The “Polysacch. Titer” value ([2]; pH 6.33, agitation 200 rpm) was 0.171 mg/mL, the “Polysacch. Titer” value ([2]; pH 6.33, agitation 300 rpm) was 0.087 mg/mL and 0.149 mg/mL and the “Polysacch. Titer” value ([2]; pH 6.66, agitation 100 rpm) was 0.247 mg/mL. For the same compound, the “Polysacch. Titer” value ([2]; pH 6.66, agitation 300 rpm) was 0.227 mg/mL, the “Polysacch. Titer” value ([2]; pH 7, agitation 200 rpm) was 0.269 mg/mL and the “Polysacch. Titer” value ([2]; pH 7.33, agitation 100 rpm) was 0.235 mg/mL and 0.216 mg/mL. For the same compound, the “Polysacch. Titer” value ([2]; pH 7.33, agitation 300 rpm) was 0.228 mg/mL and 0.211 mg/mL and the polysaccharide titer ([2]; screen, azido sugar 1 mM, only in production medium + Galactose) was “reduced”.
